Data taken from the supplement of paper PMC10307832.

Tests used:
Experiment in all cases: relative viability (nuclei count vs DMSO), 5 days (fraction); higher = more cells survive
[1] = compound: CN(C)CC1=CC(=CC=C1)N=C(C2=CC=CC=C2)C3=C(NC4=C3C=CC(=C4)C(=O)N(C)C)O + C[C@@H](Oc1cc(-c2cnn(C3CCNCC3)c2)cnc1N)c1c(Cl)ccc(F)c1Cl [Crizotinib] (partner 1 µM)
In short: (§1)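 Nuclei were stained with Hoechst during a one-step fixation (final 0.05% Triton X-100, 1% formaldehyde, 1 ug/ml Hoechst) carried out 5 days after dosing, then counted on 4× images. The cells, lung cancer lines in 1536-well plates, had been dosed by pin tool the day after seeding with one drug alone or a fixed anchor-drug dose plus five library-drug doses (not always all listed) in √10 steps. Relative viability is the nuclei count in treated wells divided by that in vehicle wells, and each value is the median of duplicate plates.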

[2] = compound: CN(C)CC1=CC(=CC=C1)N=C(C2=CC=CC=C2)C3=C(NC4=C3C=CC(=C4)C(=O)N(C)C)O + O=C(CCCCCCC(=O)Nc1ccccc1)NO [Vorinostat] (partner 1 µM)
In short: as §1

[3] = compound: CN(C)CC1=CC(=CC=C1)N=C(C2=CC=CC=C2)C3=C(NC4=C3C=CC(=C4)C(=O)N(C)C)O + Cc1nc(Nc2ncc(C(=O)Nc3c(C)cccc3Cl)s2)cc(N2CCN(CCO)CC2)n1 [Dasatinib] (partner 0.075 µM)
In short: as §1

[4] = compound: CN(C)CC1=CC(=CC=C1)N=C(C2=CC=CC=C2)C3=C(NC4=C3C=CC(=C4)C(=O)N(C)C)O + CS(=O)(=O)N1CCN(Cc2cc3nc(-c4cccc5[nH]ncc45)nc(N4CCOCC4)c3s2)CC1 [Pictilisib] (partner 1 µM)
In short: as §1

Cell Line | relative viability ([1]; first compound 0.08 µM) | relative viability ([1]; first compound 0.253 µM) | relative viability ([1]; first compound 0.8 µM) | relative viability ([1]; first compound 2.53 µM) | relative viability ([1]; first compound 8 µM) | relative viability ([2]; first compound 0.08 µM) | relative viability ([2]; first compound 0.253 µM) | relative viability ([2]; first compound 0.8 µM) | relative viability ([2]; first compound 2.53 µM) | relative viability ([2]; first compound 8 µM) | relative viability ([3]; first compound 0.08 µM) | relative viability ([3]; first compound 0.253 µM) | relative viability ([3]; first compound 0.8 µM) | relative viability ([3]; first compound 2.53 µM) | relative viability ([3]; first compound 8 µM) | relative viability ([4]; first compound 0.08 µM) | relative viability ([4]; first compound 0.253 µM) | relative viability ([4]; first compound 0.8 µM) | relative viability ([4]; first compound 2.53 µM) | relative viability ([4]; first compound 8 µM)
201T | 1.03 | 1.03 | 1.02 | 1.02 | 0.981 | 0.988 | 0.961 | 0.908 | 0.946 | 0.879 | 0.544 | 0.603 | 0.575 | 0.54 | 0.493 | 0.674 | 0.709 | 0.681 | 0.662 | 0.675
A549 | 0.847 | 0.683 | 0.818 | 0.686 | 0.731 |  |  |  |  |  |  |  |  |  |  | 0.525 | 0.509 | 0.448 | 0.438 | 0.384
A-427 | 0.984 | 0.82 | 0.865 | 0.855 | 0.719 | 0.887 | 0.86 | 0.89 | 0.872 | 0.873 | 0.741 | 0.698 | 0.653 | 0.791 | 0.679 | 0.751 | 0.693 | 0.902 | 0.803 | 0.706
ABC-1 | 1.17 | 1.12 | 1.01 | 0.764 | 0.891 | 1.34 | 1.21 | 1.1 | 0.895 | 1.14 | 0.619 | 0.617 | 0.557 | 0.605 | 0.577 | 0.613 | 0.811 | 0.599 | 0.643 | 0.64
BEN | 0.791 | 0.739 | 0.866 | 0.876 | 0.641 | 0.577 | 0.609 | 0.578 | 0.603 | 0.575 | 0.307 | 0.284 | 0.396 | 0.487 | 0.336 | 0.664 | 0.587 | 0.584 | 0.55 | 0.509
CAL-12T | 0.665 | 0.592 | 0.778 | 0.611 | 0.612 | 0.989 | 0.715 | 0.808 | 0.93 | 0.82 | 0.488 | 0.48 | 0.421 | 0.363 | 0.304 |  | 0.74 | 0.482 |  | 0.459
COR-L23 | 0.675 | 0.603 | 0.622 | 0.532 | 0.553 | 0.539 | 0.44 | 0.468 | 0.407 | 0.396 | 0.54 | 0.469 | 0.596 | 0.423 | 0.566 | 0.811 | 0.709 | 0.858 | 0.637 | 0.656
COR-L 105 | 0.857 | 0.892 | 0.882 | 0.644 | 0.625 | 0.782 | 0.81 | 0.753 | 1.1 | 0.66 | 0.394 | 0.369 | 0.307 | 0.314 | 0.328 | 0.356 | 0.381 | 0.39 | 0.377 | 0.332
ChaGo-K-1 | 1.18 | 1.1 | 1.1 |  | 1.11 | 0.753 | 0.737 | 0.795 | 0.738 | 0.777 | 0.579 | 0.61 | 0.601 | 0.567 | 0.582 | 0.814 | 1.03 | 0.967 |  | 0.879
